Assay results published in patent EP2027081B1, “THERAPEUTIC PROSTAGLANDIN COMPOUNDS FOR THE TREATMENT OF GLAUCOMA” (ALLERGAN, INC., priority 2006, dated 2007).
Like-named read-outs stand apart in the source and are kept apart here.

Tests used:
HEP3 = biological target: T1, HEP3 (Homo sapiens, UniProt P43115); assay: Radioligand binding, EP3 receptor; settings: Table 3; NA means not active
T1 sequence (P43115 1-390): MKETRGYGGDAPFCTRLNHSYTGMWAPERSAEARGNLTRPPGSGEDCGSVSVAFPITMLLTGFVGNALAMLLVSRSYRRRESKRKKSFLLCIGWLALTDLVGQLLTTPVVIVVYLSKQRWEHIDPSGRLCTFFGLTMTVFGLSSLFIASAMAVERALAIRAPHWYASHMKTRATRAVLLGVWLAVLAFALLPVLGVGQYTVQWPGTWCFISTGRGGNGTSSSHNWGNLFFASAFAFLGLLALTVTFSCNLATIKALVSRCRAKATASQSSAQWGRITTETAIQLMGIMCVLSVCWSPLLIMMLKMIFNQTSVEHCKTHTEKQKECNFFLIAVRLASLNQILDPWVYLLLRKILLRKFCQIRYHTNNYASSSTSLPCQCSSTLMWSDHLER

hEP3A/Gqi5 = biological target: T2, hEP3A/Gqi5 (Homo sapiens, UniProt P43115); assay: FLIPR calcium signal study, HEK-293(EBNA) cells; type: cell-based
T2 construct: expressed in transfected cells; host or cells: HEK-293(EBNA)
T2 sequence (P43115 1-390): T1 sequence (P43115 1-390)
Procedure: HEK-293(EBNA) cells, stably expressing one type or subtype of recombinant human prostaglandin receptors (prostaglandin receptors expressed: hDP/Gqs5; hEP1; hEP2/Gqs5; hEP3A/Gqi5; hEP4/Gqs5; hFP; hIP; hTP), were cultured in 100 mm culture dishes in high-glucose DMEM medium containing 10% fetal bovine serum, 2 mM I-glutamine, 250 µg/ml geneticin (G418) and 200 µg/ml hygromycin B as selection markers, and 100 units/ml penicillin G, 100 µg/ml streptomycin and 0.25 µg/ml amphotericin B.
(§1) Cells were seeded at a density of 5x10^4 cells per well in Biocoat® Poly-D-lysine-coated black-wall, clear-bottom 96-well plates (Becton-Dickinson) and allowed to attach overnight in an incubator at 37 °C. Cells were then washed two times with HBSS-HEPES buffer (Hanks Balanced Salt Solution without bicarbonate and phenol red, 20 mM HEPES, pH 7.4) using a Denley Cellwash plate washer (Labsystems). After 45 minutes of dye-loading in the dark, using the calcium-sensitive dye Fluo-4 AM at a final concentration of 2 µM, plates were washed four times with HBSS-HEPES buffer to remove excess dye leaving 100 µl in each well. Plates were re-equilibrated to 37 °C for a few minutes.
Cells were excited with an Argon laser at 488 nm, and emission was measured through a 510-570 nm bandwidth emission filter (FLIPR™, Molecular Devices, Sunnyvale, CA). Drug solution was added in a 50 µl volume to each well to give the desired final concentration. The peak increase in fluorescence intensity was recorded for each well. On each plate, four wells each served as negative (HBSS-HEPES buffer) and positive controls (standard agonists: BW245C (hDP); PGE2 (hEP1; hEP2/Gqs5; hEP3A/Gqi5; hEP4/Gqs5); PGF2α (hFP); carbacyclin (hIP); U-46619 (hTP), depending on receptor). The peak fluorescence change in each drug-containing well was then expressed relative to the controls.
(§2) Compounds were tested in a high-throughput (HTS) or concentration-response (CoRe) format. In the HTS format, forty-four compounds per plate were examined in duplicates at a concentration of 10^-5 M. To generate concentration-response curves, four compounds per plate were tested in duplicates in a concentration range between 10^-5 and 10^-11 M. The duplicate values were averaged. In either, HTS or CoRe format each compound was tested on at least 3 separate plates using cells from different passages to give an n ≥ 3.

EP4 receptors = biological target: T3, EP4 receptors (Homo sapiens, UniProt P35408); assay: Radioligand binding, EP4 receptor; settings: Table 3; read-out: BINDING (Ki, nM) HEP4
T3 construct: expressed in transfected cells; host or cells: HEK-293
Procedure: (§3) HEK-293 cells stably expressing the human or feline FP receptor, or EP1, EP2, or EP4 receptors were washed with TME buffer, scraped from the bottom of the flasks, and homogenized for 30 sec using a Brinkman PT 10/35 polytron. TME buffer was added to achieve a final 40 ml volume in the centrifuge tubes (the composition of TME is 100 mM TRIS base, 20 mM MgCl2, […]; 10N HCl is added to achieve a pH of 7.4).
(§4) The cell homogenate was centrifuged at 19000 r.p.m. for 20 min at 4° C using a Beckman Ti-60 rotor. The resultant pellet was resuspended in TME buffer to give a final 1 mg/ml protein concentration, as determined by Biorad assay. Radioligand binding competition assays vs. [^3H-]17 -phenyl PGF2α (5 nM) were performed in a 100µl volume for 60 min. Binding reactions were started by adding plasma membrane fraction. The reaction was terminated by the addition of 4 ml ice-cold TRIS-HCl buffer and rapid filtration through glass fiber GF/B filters using a Brandel cell harvester. The filters were washed 3 times with ice-cold buffer and oven dried for one hour.
(§5) [^3H-] PGE2 (specific activity 180 Ci mmol) was used as the radioligand for EP receptors. [^3H] 17-phenyl PGF2α was employed for FP receptor binding studies. Binding studies employing EP1, EP2, EP4 and FP receptors were performed in duplicate in at least three separate experiments. A 200µl assay volume was used. Incubations were for 60 min at 25°C and were terminated by the addition of 4 ml of ice-cold 50 mM TRIS-HCl, followed by rapid filtration through Whatman GF/B filters and three additional 4 ml washes in a cell harvester (Brandel). Competition studies were performed using a final concentration of 5 nM [^3H]-PGE2, or 5 nM [^3H] 17-phenyl PGF2α and non-specific binding determined with 10^-5M of unlabeled PGE2, or 17-phenyl PGF2α, according to receptor subtype studied.

hEP2/Gqs5 = biological target: T4, hEP2/Gqs5 (Homo sapiens, UniProt P43116); assay: FLIPR calcium signal study, HEK-293(EBNA) cells; type: cell-based
T4 construct: expressed in transfected cells; host or cells: HEK-293(EBNA)
Procedure: as §1
Cells were excited with an Argon laser at 488 nm, and emission was measured through a 510-570 nm bandwidth emission filter (FLIPR™, Molecular Devices, Sunnyvale, CA). […] The peak increase in fluorescence intensity was recorded for each well. […] The peak fluorescence change in each drug-containing well was then expressed relative to the controls.
as §2, with “averaged.” for “averaged. In either, HTS or CoRe format each compound was tested on at least 3 separate plates using cells from different passages to give an n ≥ 3.”

human EP2 receptors = biological target: T5, human EP2 receptors (Homo sapiens, UniProt P43116); assay: Competition binding, [3H]PGE2, HEK 293 cells stably expressing human EP2 receptors
T5 construct: expressed in transfected cells; host or cells: HEK 293
Procedure: Competition binding experiments were performed in a medium containing Hank's balanced salt solution, Hepes 20 mM, pH 7.3, membranes (∼60 µg protein) or 2x10^5 cells from HEK 293 cells stably expressing human EP2 receptors, [^3H]PGE2 (10 nM) and various concentrations of test compounds in a total volume of 300 µl. Reaction mixtures were incubated at 23 °C for 60 min, and were filtered over Whatman GF/B filters under vacuum. Filters were washed three times with 5 ml ice-cold buffer containing 50 mM Tris/HCl (pH 7.3). Non-specific binding was estimated in the presence of excess unlabeled PGE2 (10 µM). Binding data fitted to the binding model for a single class of binding sites, using nonlinear regression analysis.
as §3, §4, §5

HEP 2 = HEP 2 (Homo sapiens, UniProt P43116); assay: cAMP mediated assay; type: cell-based; settings: Table 1; value in brackets, footnote (a)
[1] = Table 3, read-out: FUNCTIONAL (Ca2+, EC50, nM) HEP3A
[2] = Table 1, Ca2+ signal, NA means not active, read-out: FUNCTIONAL (Ca2+, EC50, nM) HEP 2
[3] = Table 2, unit inferred, read-out: BINDING HEP2
[4] = Table 2, unit inferred, read-out: FUNCTIONAL HEP2
[5] = Table 1, NA means not active, read-out: FUNCTIONAL (Ca2+, EC50, nM) HEP 3A

T5 sequence (P43116 whole entry): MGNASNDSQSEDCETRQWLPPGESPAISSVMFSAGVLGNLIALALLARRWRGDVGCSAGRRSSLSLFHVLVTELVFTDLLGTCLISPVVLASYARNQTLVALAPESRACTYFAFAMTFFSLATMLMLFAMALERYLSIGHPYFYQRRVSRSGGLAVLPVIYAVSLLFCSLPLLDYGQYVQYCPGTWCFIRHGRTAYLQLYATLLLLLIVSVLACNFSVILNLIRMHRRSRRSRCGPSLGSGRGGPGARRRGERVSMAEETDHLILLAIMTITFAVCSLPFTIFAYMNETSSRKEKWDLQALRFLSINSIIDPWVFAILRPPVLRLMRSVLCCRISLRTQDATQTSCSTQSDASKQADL
T4 sequence (P43116 whole entry): as above
T3 sequence (P35408 whole entry): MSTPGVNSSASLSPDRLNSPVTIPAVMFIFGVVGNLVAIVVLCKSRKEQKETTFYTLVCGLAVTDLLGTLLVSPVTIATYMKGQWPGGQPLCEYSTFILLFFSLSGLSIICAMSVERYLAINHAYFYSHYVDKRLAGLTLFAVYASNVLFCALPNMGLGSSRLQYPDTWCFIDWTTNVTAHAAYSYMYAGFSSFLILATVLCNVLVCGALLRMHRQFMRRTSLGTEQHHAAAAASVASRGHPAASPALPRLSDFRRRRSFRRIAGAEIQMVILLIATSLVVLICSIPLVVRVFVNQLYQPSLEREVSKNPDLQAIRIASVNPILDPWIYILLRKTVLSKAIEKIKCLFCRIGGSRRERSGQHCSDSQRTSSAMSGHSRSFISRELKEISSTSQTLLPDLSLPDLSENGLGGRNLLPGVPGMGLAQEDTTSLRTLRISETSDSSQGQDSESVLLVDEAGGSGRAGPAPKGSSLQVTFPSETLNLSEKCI
Chain of HEP 2 (P43116 whole entry): as the sequence (P43116 whole entry) above

SMILES	EC50 (hEP2/Gqs5; [2]) [nM]	Ki (human EP2 receptors; [3]) [nM]	EC50 (hEP2/Gqs5; [4]) [nM]	also measured
CCCCCC(O)c1ccc([C@H]2CCC(=O)[C@@H]2C/C=C\CCCC(=O)O)cc1 (some centres unmarked) [drawing 116]	–	–	–	Ki (HEP3): 15000 nM; EC50 (hEP3A/Gqi5; [1]): 552 nM; Ki (EP4 receptors): 15000 nM
O=C(O)CCCCCC[C@H]1C(=O)CC[C@@H]1c1ccc(C2(O)CCC2)cc1 [Entry 17]	> 10000	–	–	–
CCCCC(O)c1ccc([C@H]2CCC(=O)[C@@H]2CCCCCCC(=O)O)cc1 (some centres unmarked)	–	1400	–	EC50 (hEP2/Gqs5): 1410 nM
CCCCC(O)Cc1ccc([C@H]2CCC(=O)[C@@H]2CCCCCCC(=O)O)cc1 (some centres unmarked)	–	700	343	–
CCCCCC(O)c1ccc([C@H]2CCC=C2CCCCCCC(=O)O)cc1 (some centres unmarked)	–	2810	4880	–
CCCCCC(O)c1ccc([C@H]2CCC(=O)[C@@H]2CCCc2ccc(C(=O)O)s2)cc1 (some centres unmarked) [Entry 23]	2	–	–	EC50 (hEP3A/Gqi5; [5]): 55 nM; Ki (human EP2 receptors; Table 1, read-out: BINDING (Ki, nM) HEP 2): 54 nM; EC50 (HEP 2): 0.003 µM
CCCCCC(O)c1ccc([C@H]2CCC(=O)[C@@H]2CCCCCCC(=O)OC)s1 (some centres unmarked)	–	7100	–	EC50 (hEP2/Gqs5): 7100 nM
O=C(O)CCC/C=C\C[C@H]1[C@H](Cl)CC[C@@H]1c1ccc(C(O)C2CCCCC2)cc1 (some centres unmarked) [Entry 19]	2100	–	–	–
CCCCC(O)c1ccc([C@H]2CCC(=O)[C@@H]2CCCCCCC(=O)OC)cc1 (some centres unmarked)	–	15000	15000	–
CCCCCC(O)c1ccc([C@H]2CCC(=O)[C@@H]2CCCCCCC(=O)OC)cc1 (some centres unmarked)	–	–	–	EC50 (hEP2/Gqs5; Table 3, read-out: FUNCTIONAL (Ca2+, EC50, nM) HEP2): 2160 nM; EC50 (hEP3A/Gqi5; [1]): 3090 nM; Ki (human EP2 receptors; Table 3, read-out: BINDING (Ki, nM) HEP2): 4680 nM; Ki (EP4 receptors): 15000 nM
CCCC1(C(O)c2cccc([C@H]3CCC(=O)[C@@H]3CCCCCCC(=O)O)c2)CCC1 (some centres unmarked) [Entry 4]	3410	–	–	EC50 (hEP3A/Gqi5; [5]): 3830 nM
CCCCCC(O)c1ccc([C@H]2CC[C@@H](Cl)[C@@H]2CCCCCCC(=O)O)cc1 (some centres unmarked)	–	1900	15000	–
CCCCCC(O)c1ccc([C@H]2CC[C@@H](F)[C@@H]2CCCCCCC(=O)O)cc1 (some centres unmarked)	–	600	15000	–
